Consider four molecules from patent US10647673B2, “Acetophenone compound, preparation method thereof, and application thereof in fatty liver prevention and treatment” (Nanjing Bioenergy Medicine Science & Technology Co., Ltd., priority 2017, dated 2020).

What all share (assay type): in vivo
In assay [1] the test system is Fatty Liver Diseases of SD Rats. The experiment in a line: Liver functions of lipid-emulsion SD rats after administration for 4 weeks. Further details: unit not given here. Conditions: compounds 80 mg/kg, Obeticholic Acid 10 mg/kg.
The test system is the same in assay [2]. The experiment in a line: Blood serum lipids in SD rats given lipid emulsion (fatty liver model). Further details: unit not given here. Conditions: blood serum after 14 days of continuous administration; compounds 80 mg/kg, Obeticholic Acid 10 mg/kg, intragastric; lipid emulsion continued. As to the method:
(§1) 500 g of lard oil was taken, placed in a container, and heated to melt. When the temperature rose to 100° C., it was added with 200 g of cholesterol to dissolve completely, and then further added with 20 g of propylthiouracil. The resulted mixture was stirred well, and added with 500 ml of Tween 80 after dissolution, resulting in an oil phase. At the same time, 600 mL of distilled water and 400 mL of 1,2-propanediol were taken and heated to 60° C. in a water bath, then were added with 40 g of sodium deoxycholate. The resulted mixture was stirred well until realizing complete dissolution, so as to give an aqueous phase. The aqueous phase was added into the oil phase and mixed well to give a lipid emulsion. The lipid emulsion was heated in a water bath of 37° C. before intragastric administration to animals.
(§2) An appropriate amount of pharmaceutical was weighed, added with 0.5% CMC-Na, and mixed homogeneously by grinding. There are groups for Compound 01 (80 mg/kg), Compound 02 (80 mg/kg), Compound 03 (80 mg/kg), Compound 04 (80 mg/kg), Compound 05 (80 mg/kg), Compound 06 (80 mg)/kg), Compound 07 (80 mg/kg), Compound 08 (80 mg/kg), Compound 09 (80 mg/kg), Compound 10 (80 mg/kg), Compound 11 (80 mg/kg), Compound 12 (80 mg/kg), Compound 13 (80 mg/kg), Compound 14 (80 mg/kg), Compound 15 (80 mg/kg), Compound 16 (80 mg/kg), Compound 17 (80 mg/kg), Compound 18 (80 mg/kg), Compound 19 (80 mg/kg), Compound 20 (80 mg/kg), Compound 21 (80 mg/kg), and Compound 22 (80 mg/kg).
(§3) Male SD rats weighing 180-200 g were fed adaptively for 7 days. Based on body weight, 10 animals were used as control and the remaining animals were intragastrically administered with the lipid emulsion every day, 1 ml/100 g body weight for 14 days. After fasting for 12 hours, 1 mL of blood was collected from the orbits of the animals, and was determined by Hitachi Automatic Biochemical Analyzer 7080 for serum cholesterol (CHO), triglyceride (TG), low density lipoprotein (LDL-C) and high density lipoprotein (HDL-C).
(§4) The modeled rats were continued with the intragastric administration of the lipid emulsion. At the same time, the pharmaceutical-administered groups were administrated with a corresponding dose of pharmaceuticals, while the Model group was administrated with an equal volume of solvent. The pharmaceutical-administered groups were administrated with the lipid emulsion in the morning, and with the pharmaceuticals in the afternoon. The animals were measured for the body weight once a week, and were observed. After 14 days of continuous administration, 1 mL of blood was collected from the orbits, and was determined for the contents of triglyceride, cholesterol, low density lipoprotein and high density lipoprotein in blood serum.

Assay [3] has as its system fatty liver of the SD rats. Put plainly: Pathological sections and grading of fatty liver of SD rats. Conditions: compounds 80 mg/kg, Sim 10 mg/kg, OCA 10 mg/kg. The procedure: as §1, §2, §3, §4

The structures appear in SMILES notation.

In assay [1], `CC(=O)c1ccc(NC(=O)C(C)(C)CCCOc2cc(C)ccc2C)cc1` [Compound 02] returned an ALP of 1001.52 ± 273.34, an ALT of 62.52 ± 13.24, an AST of 187.00 ± 36.44 and a TBIL of 1.98 ± 0.81. In assay [2], the “CHO (serum cholesterol)” value was 4.29 ± 0.65, the “HDL-C (high density lipoprotein)” value worked out at 1.74 ± 0.29, the “LDL-C (low density lipoprotein)” value was 2.18 ± 0.71 and the “TG (triglyceride)” value is on record as 0.51 ± 0.19. In addition, the “Pathological grading: Steatotic hepatocytes” value in assay [3] (animal 1) is given as “+ (25-45% of hepatocytes undergoing steatosis)”. Further, in assay [3] (animal 2), the “Pathological grading: Steatotic hepatocytes” value is “+ (25-45% of hepatocytes undergoing steatosis)”. In assay [3] (animal 3), the “Pathological grading: Steatotic hepatocytes” value was “++ (45-65% of hepatocytes undergoing steatosis)”. Besides, the “Pathological grading: Steatotic hepatocytes” value in assay [3] (animal 4) is “+ (25-45% of hepatocytes undergoing steatosis)”. Further, the “Pathological grading: Steatotic hepatocytes” value in assay [3] (animal 5) was “++ (45-65% of hepatocytes undergoing steatosis)”.

In the case of `Cc1ccc(C)c(OCCCC(C)(C)C(=O)NCC(=O)c2ccc(OC(=O)c3cccnc3)c(O)c2)c1` [Compound 22], in assay [1], the ALP was found to be 874.33 ± 251.66, the ALT is on record as 58.00 ± 2.55, the AST was found to be 180.60 ± 27.19 and the TBIL was 2.97 ± 1.53. For the same molecule, in assay [2], the “CHO (serum cholesterol)” value amounted to 4.36 ± 1.08, the “HDL-C (high density lipoprotein)” value is given as 1.47 ± 0.51, the “LDL-C (low density lipoprotein)” value is recorded as 2.87 ± 1.25 and the “TG (triglyceride)” value stood at 0.57 ± 0.27. Moreover, the “Pathological grading: Steatotic hepatocytes” value in assay [3] (animal 1) was “+ (25-45% of hepatocytes undergoing steatosis)”. Also, the “Pathological grading: Steatotic hepatocytes” value in assay [3] (animal 2) was “+ (25-45% of hepatocytes undergoing steatosis)”. Further, the “Pathological grading: Steatotic hepatocytes” value in assay [3] (animal 3) is “++ (45-65% of hepatocytes undergoing steatosis)”. For the same molecule, the “Pathological grading: Steatotic hepatocytes” value in assay [3] (animal 4) is “+ (25-45% of hepatocytes undergoing steatosis)”. Besides, the “Pathological grading: Steatotic hepatocytes” value in assay [3] (animal 5) is reported as “+ (25-45% of hepatocytes undergoing steatosis)”.

In assay [1], `Cc1ccc(C)c(OCCCC(C)(C)C(=O)Nc2ccc(C(=O)CNC(=O)c3cccnc3)cc2)c1` [Compound 12] yielded an ALP of 994.50 ± 150.68, an ALT of 54.00 ± 5.72, an AST of 137.75 ± 31.74 and a TBIL of 3.25 ± 2.11. Moreover, in assay [2], the “CHO (serum cholesterol)” value is on record as 4.03 ± 0.47, the “HDL-C (high density lipoprotein)” value amounted to 1.92 ± 0.11, the “LDL-C (low density lipoprotein)” value worked out at 2.16 ± 0.05 and the “TG (triglyceride)” value was found to be 0.33 ± 0.05. Further, in assay [3] (animal 1), the “Pathological grading: Infiltration of inflammatory cells” value (shortened to “Pathological grading: Infiltration”) is listed as 0 and the “Pathological grading: Steatotic hepatocytes” value was 0. Besides, in assay [3] (animal 3), the “Pathological grading: Infiltration” value turned out to be 0 and the “Pathological grading: Steatotic hepatocytes” value is reported as 0. In addition, in assay [3] (animal 4), the “Pathological grading: Steatotic hepatocytes” value turned out to be 0. Also, in assay [3] (animal 5), the “Pathological grading: Infiltration” value was 0.

`CC(=O)c1ccc(O)c(NC(=O)c2cccnc2)c1` [Compound 06]: the “Pathological grading: Steatotic hepatocytes” value in assay [3] (animal 1) is “+ (25-45% of hepatocytes undergoing steatosis)”; in assay [3] (animal 2), “++ (45-65% of hepatocytes undergoing steatosis)”; in assay [3] (animal 3), “++ (45-65% of hepatocytes undergoing steatosis)”; in assay [3] (animal 4), “+ (25-45% of hepatocytes undergoing steatosis)”; in assay [3] (animal 5), “++ (45-65% of hepatocytes undergoing steatosis)”.
